Experimental data from publication PMC6421297, “Novel Mouse Tauopathy Model for Repetitive Mild Traumatic Brain Injury: Evaluation of Long-Term Effects on Cognition and Biomarker Levels After Therapeutic Inhibition of Tau Phosphorylation” (Frontiers in Neurology, 2019).

Experiments:
[1] = system: tau phosphorylation at Thr231 and Ser202 in SH-SY5Y-(P301L) cells; assay type: cell-based; settings: 6 h
Experimental: (§1) SH-SY5Y-P301L cells (gift from Prof. Fred Van Leuven, Department of Human Genetics, KU Leuven, Belgium) were cultured Dulbecco's Modified Eagle Medium (DMEM):Nutrient Mixture F-12 (DMEM/F-12, Gibco, c/o Invitrogen, Saint Aubin, France) containing 1% Penicillin-Streptomycin mixture (Gibco) and 10% fetal bovine serum (FBS, Gibco) in a humidified, 5% CO2 incubator at 37°C. Cells were split routinely once a week. Cells were seeded at a density of 1.5 x 10^6 cells/well in P60 well plates with 4 ml medium/well and exposed for 6 h to a range of ros concentrations (Figures 2–4) or to a few concentrations of various kinase inhibitors with different selectivities (Figure 3). At the end of the incubation cells were harvested for Western blotting. Cells were scraped in cold phosphate-buffered saline, centrifuged at 10,000 x g for 5 min at 4°C, and pellets were snap-frozen in liquid nitrogen. Experiments were repeated three or four times.
(§2) For Western blot analysis, cell pellets were lysed in homogenization buffer (25 mM MOPS, 15 mM EGTA, 15 mM MgCl2, 60 mM β-glycerophosphate, 15 mM p-nitrophenylphosphate, 2 mM dithiothreitol (DTT), 1 mM Na3VO4, 1 mM NaF, 1 mM disodium phenylphosphate, 1x protease inhibitor cocktail, 0.2% Nonidet P-40 substitute). Protein extracts were mixed (1:1 v/v) with sample buffer (2 × NuPAGE LDS sample buffer, 200 mM DTT) and 20 μg of total protein was loaded on NuPAGE 4–12% Bis-Tris protein gels. Electrophoresis was carried out at 70 V in MOPS buffer for 4 h. Rapid blot transfers were performed at 2.5A/25V for 7 min. […] P-tau and T-tau signals were first normalized to GAPDH from the same membranes, and then divided one by another to obtain the level of pS202 or pT231 relative to T-tau. Values are presented as mean±SEM of three or four independent experiments.

[2] = system: S202-Tau phosphorylation in SH-SY5Y-(P301L) cells; test: Western blot of pS202-tau/T-tau in SH-SY5Y-(P301L) cells, roscovitine and/or LiCl, with coefficient of drug interaction; assay type: cell-based; settings: 6 h; for tau phosphorylation (pS202-tau), individual treatment: single agent
Experimental: as §1, §2
For cell cultures and immunoblotting data the two-tailed unpaired t-test (Graphpad Prism) was used. Coefficients of drug interaction (CDI) were calculated as follows: CDI = AB/(A × B). According to the ratio pS202 tau/T-tau of each group, AB is the ratio of the combination groups to control group; A or B is the ratio of the single agent group to control group. […]

epileptic rats = system: epileptic rats; design: method as in PMID 28595035; settings: cited from earlier work
mice following TBI = settings: cited from earlier work

Structure (SMILES)	Inhibition of tau phosphorylation at Thr231 and Ser202 ([1]; 25, 50, and 100 μM)	reduction of tau phosphorylation by inhibitors to secondary kinase targets ([1]; 25, 50, and 100 μM)	other results
O=C(NC1CCNCC1)c1[nH]ncc1NC(=O)c1c(Cl)cccc1Cl [AT7519]	evident		
CC[C@H](CO)Nc1nc(NCc2ccc(-c3ccccn3)cc2)c2ncn(C(C)C)c2n1 [CR8]	evident		
NC(=O)c1ccc(-c2nc(-c3ccc4c(c3)OCCO4)c(-c3ccccn3)[nH]2)cc1 [D4476]		none of the inhibitors to secondary kinase targets reduced tau phosphorylation	
COc1cc(OC)c(C=C2C(O)=Nc3ccccc32)c(OC)c1 [IC261]			activity at site pSer202 ([1]; 25, 50, and 100 μM): active
O=C1NC(Nc2ccccc2)=N/C1=C\c1ccc2c(c1)OCO2 [Leucettine 41]		none of the inhibitors to secondary kinase targets reduced tau phosphorylation	
[Cl-].[Li+] [LiCl, lithium chloride]			dose-response of pS202-tau inhibition, LiCl alone ([2]; LiCl alone): no dose-response relationship; tau phosphorylation (pS202-tau), individual treatment [2]: slightly down-regulated; epilepsy-induced axonal impairment (epileptic rats): reversed axonal impairment
CC[C@@H](CO)Nc1nc(N(C)Cc2ccc(-c3ccccn3)cc2)c2ncn(C(C)C)c2n1 [N6-methyl-CR8]	not		cause of decreases in P-tau at the high dose ([1]; 100 μM): likely the result of drug-associated cell toxicity
CCC(CO)Nc1nc(N(C)Cc2ccccc2)c2ncn(C(C)C)c2n1 (centres unmarked) [N6-methyl-roscovitine]	not		
COc1cccc(-c2cc(=O)c3ccccc3o2)c1N [PD098059]		none of the inhibitors to secondary kinase targets reduced tau phosphorylation	
CC[C@H](CO)Nc1nc(NCc2ccccc2)c2ncn(C(C)C)c2n1 [Roscovitine, (R)-roscovitine]	evident		inhibition of Ser202 phosphorylation, ros alone ([2]; ros alone): moderate and dose-dependent inhibition; tau phosphorylation (pS202-tau), individual treatment [2]: slightly down-regulated; cognitive deficits, spatial learning and memory after TBI (mice following TBI): attenuated cognitive deficits and improved spatial learning and memory; inhibition of Thr231 and Ser202 phosphorylation ([1]; range of ros concentrations): dose-dependent inhibition; epilepsy-induced axonal impairment (epileptic rats): reversed axonal impairment
CCc1cnn2c(NCc3ccc[n+]([O-])c3)cc(N3CCCC[C@H]3CCO)nc12 [SCH727965]	evident		
CC(C)(C)c1cnc(CSc2cnc(NC(=O)C3CCNCC3)s2)o1 [SNS-032, N-[5-[[[5-(1,1-dimethylethyl)-2-oxazolyl]methyl]thio]-2-thiazolyl]-4-piperidinecarboxamide]	evident		
CCN1/C(=C/C(C)=O)Sc2ccc(OC)cc21 [TG003]		none of the inhibitors to secondary kinase targets reduced tau phosphorylation	
N#CC(=C(/N)Sc1ccccc1N)/C(C#N)=C(/N)Sc1ccccc1N [UO126]		none of the inhibitors to secondary kinase targets reduced tau phosphorylation	
COc1ccc2c(c1)[nH]c1c(C)nccc12 [harmine]		none of the inhibitors to secondary kinase targets reduced tau phosphorylation	
